According to ChEMBL document CHEMBL1156872, “Synthesis and discovery of 2,3-dihydro-3,8-diphenylbenzo[1,4]oxazines as a novel class of potent cholesteryl ester transfer protein inhibitors” (Bioorg Med Chem Lett, 2010):

Legend:
[1] = molecular target: T1, Cholesteryl ester transfer protein (Homo sapiens) (UniProt P11597); experiment: Inhibition of human cholesteryl ester transfer protein at 1 uM by scintillation proximity assay
T1 sequence (whole entry): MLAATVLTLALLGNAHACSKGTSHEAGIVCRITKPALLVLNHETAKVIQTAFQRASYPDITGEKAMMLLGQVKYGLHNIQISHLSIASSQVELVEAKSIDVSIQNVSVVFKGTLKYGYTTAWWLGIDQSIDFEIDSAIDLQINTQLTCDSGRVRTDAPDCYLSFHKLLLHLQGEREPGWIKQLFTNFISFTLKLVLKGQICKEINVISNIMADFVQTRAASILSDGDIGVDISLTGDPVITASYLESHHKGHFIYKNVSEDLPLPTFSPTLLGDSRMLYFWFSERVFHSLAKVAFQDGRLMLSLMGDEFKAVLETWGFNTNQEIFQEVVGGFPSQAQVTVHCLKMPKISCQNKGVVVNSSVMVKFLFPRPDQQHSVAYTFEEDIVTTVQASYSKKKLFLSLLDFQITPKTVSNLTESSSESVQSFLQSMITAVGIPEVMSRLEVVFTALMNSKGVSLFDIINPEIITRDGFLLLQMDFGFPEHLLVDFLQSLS

[2] = Aqueous solubility at pH 2.0; assay type: physicochemical; settings: aqueous medium
[3] = Aqueous solubility at pH 7.4; assay type: physicochemical; settings: aqueous medium
[4] = molecular target: T2, Cholesteryl ester transfer protein (Homo sapiens, UniProt P11597); experiment: Inhibition of human cholesteryl ester transfer protein by scintillation proximity assay
T2 sequence (P11597 whole entry): T1 sequence (whole entry)

[5] = Half life in human liver microsomes; assay type: ADME, Microsome

inhibition [1] [%] | Compound | other results
33 | OC(CN1c2cccc(-c3cccc(OC(F)(F)F)c3)c2OCC1c1ccc(OC(F)(F)C(F)F)cc1)C(F)(F)F (mixture of isomers) | –
79 | OC(CN1c2cccc(-c3cccc(F)c3)c2OCC1c1cccc(OC(F)(F)C(F)F)c1)C(F)(F)F (mixture of isomers) | –
28 | C[C@@H](O)CN1c2cccc(-c3cccc(OC(F)(F)F)c3)c2OC[C@@H]1c1cccc(OC(F)(F)C(F)F)c1 | –
9 | CN(C)CCN1c2cccc(-c3cccc(OC(F)(F)F)c3)c2OCC1c1cccc(OC(F)(F)C(F)F)c1 (racemic) | –
5 | O=C(CN1c2cccc(-c3cccc(OC(F)(F)F)c3)c2OC[C@@H]1c1cccc(OC(F)(F)C(F)F)c1)C(F)(F)F | –
68 | OC(CN1c2cccc(-c3cccc(OC(F)(F)F)c3)c2OCC1c1cccc(SC(F)(F)F)c1)C(F)(F)F (mixture of isomers) | –
100 | O[C@@H](CN1c2cccc(-c3cc(F)cc(F)c3)c2OC[C@@H]1c1cccc(OC(F)(F)C(F)F)c1)C(F)(F)F | –
– | O[C@@H](CN1c2cccc(-c3cccc(OC(F)(F)F)c3)c2CC[C@@H]1c1cccc(OC(F)(F)C(F)F)c1)C(F)(F)F | solubility [2]: < 1 µg/mL; solubility [3]: < 1 µg/mL
56 | CCOc1cccc(C2COc3c(-c4cccc(OC(F)(F)F)c4)cccc3N2CC(O)C(F)(F)F)c1 (mixture of isomers) | –
5 | CC(=O)CN1c2cccc(-c3cccc(OC(F)(F)F)c3)c2OC[C@@H]1c1cccc(OC(F)(F)C(F)F)c1 | –
6 | OC(CN1c2cccc(-c3cccc(OC(F)(F)F)c3)c2OCC1c1ccccc1OC(F)(F)C(F)F)C(F)(F)F (mixture of isomers) | –
59 | O[C@@H](CN1c2cccc(-c3cc(C(F)(F)F)cc(C(F)(F)F)c3)c2OC[C@@H]1c1cccc(OC(F)(F)C(F)F)c1)C(F)(F)F | –
10 | OCCCN1c2cccc(-c3cccc(OC(F)(F)F)c3)c2OCC1c1cccc(OC(F)(F)C(F)F)c1 (racemic) | –
23 | O[C@H](CN1c2cccc(-c3cccc(OC(F)(F)F)c3)c2OC[C@@H]1c1cccc(OC(F)(F)C(F)F)c1)C(F)(F)F | –
25 | COCCN1c2cccc(-c3cccc(OC(F)(F)F)c3)c2OCC1c1cccc(OC(F)(F)C(F)F)c1 (racemic) | –
96 | OC(CN1c2cccc(-c3cccc(OC(F)(F)F)c3)c2OCC1c1cccc(OC(F)(F)C(F)F)c1)C(F)(F)F (mixture of isomers) | IC50 [4]: 0.045 µM
77 | O[C@H](CF)CN1c2cccc(-c3cccc(OC(F)(F)F)c3)c2OC[C@@H]1c1cccc(OC(F)(F)C(F)F)c1 | half-life [5]: 21 min
65 | OC(CN1c2cccc(-c3cccc(OC(F)(F)F)c3)c2OCC1c1cccc(OC(F)(F)F)c1)C(F)(F)F (mixture of isomers) | IC50 [4]: 0.107 µM
29 | COc1cccc(C2COc3c(-c4cccc(OC(F)(F)F)c4)cccc3N2CC(O)C(F)(F)F)c1 (mixture of isomers) | –
50 | C[C@H](O)CN1c2cccc(-c3cccc(OC(F)(F)F)c3)c2OC[C@@H]1c1cccc(OC(F)(F)C(F)F)c1 | IC50 [4]: 0.088 µM
55 | O[C@@H](CF)CN1c2cccc(-c3cccc(OC(F)(F)F)c3)c2OC[C@@H]1c1cccc(OC(F)(F)C(F)F)c1 | –
24 | CCN1c2cccc(-c3cccc(OC(F)(F)F)c3)c2OCC1c1cccc(OC(F)(F)C(F)F)c1 (racemic) | –
